For one data set, the system named is K562/4. Nature of the data set: Antiproliferative activity against human K562/4 cells incubated for 72 hrs by MTT assay. The format is functional, cell-based. The following applies: K562/4, 72 h. For orientation: Formazan colour is commonly taken as a measure of viable cells.
The nature of data set [1]: Antiproliferative activity against hFB-hTERT6 cells incubated for 72 hrs by MTT assay. It is filed as toxicity, cell-based. As to conditions: human.
Another data set concerns K562. The experiment in a line: Antiproliferative activity against human K562 cells incubated for 72 hrs by MTT assay. The format is functional, cell-based. As to conditions: K562, 72 h.
For a further data set, the system named is A549. The experiment in a line: Antiproliferative activity against human A549 cells incubated for 72 hrs by MTT assay. The format is functional, cell-based. The following applies: A549, 72 h.
A short description of data set [2]: Resistance index, ratio of IC50 for human K562/4 cells to IC50 for human K562 cells. It is filed as functional.
Data set [3] can be described thus: Selectivity index, ratio of IC50 for human hFB-hTERT6 cells to IC50 for human K562 cells. It is filed as toxicity. The following applies: hFB-hTERT6 cells and K562 cells, read-out: Ratio IC50.
The nature of data set [4]: Drug uptake in human K562 cells at 2 uM incubated for 3 to 120 hrs by flow cytometry. The format is ADME, cell-based. The following applies: k562, 2 µM, time 3-120 hrs. For orientation: Flow cytometry measures light scatter and fluorescence of single cells or particles in a stream.
Data set [5] is described as follows: Drug uptake in P-gp+ human […] cells at 3 uM incubated for 10 mins by confocal microscopy. It is filed as ADME, cell-based. As to conditions: k562/4, 10 min.
Data set [6] in a line: Drug uptake in lysosome of human HCT-116 cells at 3 uM incubated for 1 hr by LysoTracker Deep Red dye based confocal microscopy. The format is ADME, subcellular. As to conditions: hct-116, 1 h.
Data set [7] can be described thus: Drug uptake in cytoplasmic membrane of human HCT-116 cells at 3 uM incubated for 1 hr by confocal microscopy. It is filed as ADME, cell membranes, Cytoplasm membrane. The following applies: hct-116, 1 h.
In data set [8] the target is T1, DNA topoisomerase 1 (Homo sapiens) (UniProt P11387).
T1 sequence (whole entry): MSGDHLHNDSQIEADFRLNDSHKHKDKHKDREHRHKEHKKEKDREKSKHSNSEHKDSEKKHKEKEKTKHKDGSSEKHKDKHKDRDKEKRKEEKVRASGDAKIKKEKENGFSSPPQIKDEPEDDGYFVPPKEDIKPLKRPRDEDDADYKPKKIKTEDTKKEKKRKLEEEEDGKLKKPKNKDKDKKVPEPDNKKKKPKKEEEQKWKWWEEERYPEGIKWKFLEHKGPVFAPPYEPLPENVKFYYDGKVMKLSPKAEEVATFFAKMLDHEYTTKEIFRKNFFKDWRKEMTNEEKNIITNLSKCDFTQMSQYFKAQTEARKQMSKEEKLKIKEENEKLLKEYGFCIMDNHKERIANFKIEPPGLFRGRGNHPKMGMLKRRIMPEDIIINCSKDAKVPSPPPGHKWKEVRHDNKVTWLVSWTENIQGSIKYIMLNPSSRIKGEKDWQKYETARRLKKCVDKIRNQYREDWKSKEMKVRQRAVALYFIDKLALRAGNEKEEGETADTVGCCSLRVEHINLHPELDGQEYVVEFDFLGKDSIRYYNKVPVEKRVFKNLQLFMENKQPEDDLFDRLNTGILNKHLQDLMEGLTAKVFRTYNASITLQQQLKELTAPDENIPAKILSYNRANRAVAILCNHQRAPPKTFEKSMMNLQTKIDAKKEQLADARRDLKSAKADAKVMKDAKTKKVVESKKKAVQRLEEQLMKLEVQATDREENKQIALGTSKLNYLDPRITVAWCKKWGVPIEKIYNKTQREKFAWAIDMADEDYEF
The experiment in a line: Inhibition of Top1 (unknown origin)-mediated unwinding of supercoiled DNA at 5 uM incubated for 30 mins by electrophoretic analysis.

The nature of data set [9]: Drug uptake in human HCT-116 cells at 3 uM incubated for 10 mins by confocal microscopy. The format is ADME, cell-based. The following applies: hct-116, 10 min.
Another data set has as its system DNA. The experiment in a line: Binding affinity to pBR322 plasmid DNA (unknown origin) assessed as effect on electrophoretic mobility of DNA at 1 to 40 uM incubated for 30 mins. It is filed as nucleic-acid assay. As to conditions: Escherichia coli, dose 1-40 µM.
Data set [10] in a line: Drug uptake in nuclear membrane of human HCT-116 cells at 3 uM incubated for 1 hr by confocal microscopy. The format is ADME, cell membranes. As to conditions: hct-116, 1 h.

As usually defined, the IC50 is the concentration that inhibits the measured activity by half. A higher IC50 goes with lower potency.

Molecules are shown by their SMILES. Active and inactive are the calls of the source. The rule behind the calls is not given here. Some results are limits rather than exact numbers.

The compound `COc1cccc2c1C(=O)c1c(O)c3c(c(O)c1C2=O)C[C@@](O)(C(=O)CO)C[C@@H]3O[C@H]1C[C@H](N)[C@H](O)[C@H](C)O1` [DOXORUBICIN] showed an IC50 in the data set with K562/4 of 14000 nM.
As to `CS(=O)(=O)O.O=C(NC1CCNCC1)c1cc2c(O)c3c(c(O)c2[nH]1)C(=O)c1ccccc1C3=O`, in data set [1], half-maximal inhibition (IC50 at 72 h) was put at 2600 nM. Moreover, the IC50 amounted to 1800 nM with K562, 4200 nM in the data set with A549 and 41000 nM with K562/4. In [2], the “Ratio IC50” value worked out at 22.8. Further, the selectivity ratio in [3] came out at 1.4.
Take `CS(=O)(=O)O.O=C(N[C@H]1CCNC1)c1cc2c(O)c3c(c(O)c2[nH]1)C(=O)c1ccccc1C3=O`: in data set [1], the IC50 at 72 h amounted to 5500 nM. The IC50 in the data set with K562 stood at 3500 nM; with A549 it was 4300 nM; in the data set on K562/4 it was 43000 nM. The “Ratio IC50” value in [2] turned out to be 12.3. Moreover, the selectivity ratio in data set [3] stood at 1.6.
In data set [1], `N[C@H]1CCN(C(=O)c2cc3c(O)c4c(c(O)c3o2)C(=O)c2ccccc2C4=O)C1` had an IC50 at 72 h above 50000 nM. Besides, the IC50 with K562 is 1600 nM; with A549, above 50000 nM; in the data set on K562/4, 1700 nM. For the same compound, the “Ratio IC50” value in [2] is 1.1. For the same compound, in data set [3], the selectivity ratio was above 31.2.
In the case of `CS(=O)(=O)O.O=C1c2ccccc2C(=O)c2c1c(O)c1cc(C(=O)N3CCNCC3)[nH]c1c2O`, the IC50 at 72 h in data set [1] came out at 3300 nM. The IC50 with K562 was 1000 nM; with A549, 4400 nM; with K562/4, 1200 nM. Also, the “Ratio IC50” value in data set [2] came to 1.2. In data set [3], the selectivity ratio was 3.3.
In data set [1], `CS(=O)(=O)O.O=C(NC1CCCNC1)c1cc2c(O)c3c(c(O)c2[nH]1)C(=O)c1ccccc1C3=O` (racemic) came in with an IC50 at 72 h of 4400 nM. The IC50 in the data set on K562 amounted to 1200 nM; in the data set on A549 it was 9000 nM; in the data set on K562/4, 2300 nM. Moreover, the “Ratio IC50” value in data set [2] amounted to 1.9. The selectivity ratio in [3] came out at 3.7.
On to `CS(=O)(=O)O.NC1CCCN(C(=O)c2cc3c(O)c4c(c(O)c3[nH]2)C(=O)c2ccccc2C4=O)C1` (racemic), for which the IC50 at 72 h in data set [1] amounted to 1800 nM. In addition, the IC50 in the data set with K562 turned out to be 1200 nM; in the data set on A549 it was 1200 nM; in the data set with K562/4, 1000 nM. Also, the “Ratio IC50” value in data set [2] is 0.8. Further, in data set [3], the selectivity ratio was found to be 1.5.
In turn, `Cc1[nH]c2c(O)c3c(c(O)c2c1C(=O)N1CC[C@H](N)C1)C(=O)c1ccccc1C3=O` came in with an IC50 at 72 h in data set [1] of 5000 nM. Moreover, the Drug uptake entry in data set [4] was “Not_active”; in data set [5] it was “Active”; in [6], “Active”; in data set [7], “Not_active”; in data set [9], “Active”; in data set [10] it was “Not_active”. For the same compound, the IC50 was found to be 400 nM in the data set with K562, 1900 nM with A549 and 50000 nM with K562/4. For the same compound, the “Ratio IC50” value in data set [2] came out at 125. Also, in data set [8], the inhibition entry was “Active; Slightly Less Potent”. In the data set on DNA, the result was inactive. Also, the selectivity ratio in data set [3] came to 12.5.
In [1], `CS(=O)(=O)O.N[C@@H]1CCN(C(=O)c2cc3c(O)c4c(c(O)c3[nH]2)C(=O)c2ccccc2C4=O)C1` came in with an IC50 at 72 h of 4300 nM. Further, the IC50 in the data set with K562 is 1300 nM; in the data set with A549, 4300 nM; in the data set with K562/4, 1200 nM. Besides, the “Ratio IC50” value in data set [2] is listed as 0.9. Further, the selectivity ratio in data set [3] stood at 3.3.
In the case of `CS(=O)(=O)O.O=C(N[C@@H]1CCNC1)c1cc2c(O)c3c(c(O)c2[nH]1)C(=O)c1ccccc1C3=O`, in [1], the IC50 at 72 h worked out at 5000 nM. The results for the IC50 in the data set with K562, in the data set with A549 and in the data set on K562/4 were 2300 nM, 4000 nM and 47000 nM, respectively. The “Ratio IC50” value in data set [2] is reported as 20.4. In addition, the selectivity ratio in data set [3] worked out at 2.2.
Take `N[C@H]1CCN(C(=O)c2cc3c(O)c4c(c(O)c3s2)C(=O)c2ccccc2C4=O)C1`: the 50% inhibitory concentration (IC50) at 72 h in data set [1] is 1800 nM. For the same compound, the 50% inhibitory concentration (IC50) with A549 came out at 2000 nM; with K562/4, 400 nM. For the same compound, in [2], the “Ratio IC50” value was found to be 1.2. Moreover, the selectivity ratio in data set [3] came to 6.

The values above are taken from ChEMBL document CHEMBL6087404, “Naphthoindole-2-carboxamides as a lipophilic chemotype of hetarene-anthraquinones potent against P-gp resistant tumor cells” (Eur J Med Chem, 2025).
